Data on eight molecules can be found in paper PMC9354638, “Targeting p21-activated kinase 4 (PAK4) with pyrazolo[3,4-d]pyrimidine derivative SPA7012 attenuates hepatic ischaemia-reperfusion injury in mice” (Journal of Enzyme Inhibition and Medicinal Chemistry, 2022).

The inhibition is the drop in the measured response relative to a control, in per cent. A word on the IC50: it is the concentration at which inhibition is half-maximal.

In this assay the target is T1, PAK4 (Homo sapiens, UniProt O96013).
T1 construct: purchased Reaction Biology Corporation (Malvern, PA, USA)
The experiment in a line: HotSpot kinase assay (Reaction Biology Corp.), PAK4 enzyme inhibition. The assay is classed as biochemical. As to conditions: ATP 10 μM; for inhibition at 20 µM: relative percentage inhibition at 20 μM of compounds with staurosporine, read-out: PAK4 enzyme inhibition % inhibitory activity; for IC50: 10-dose, 3-fold serial dilution starting at 100 μM. As for the experimental part:
To examine the enzyme activity, HotSpot kinase assay was performed at Reaction Biology Corporation (Malvern, PA, USA). The kinase and substrate pairs were prepared in reaction buffer: 20 mM HEPES at pH 7.5, 10 mM MgCl2, 1 mM EGTA, 0.02% Brij 35, 0.02 mg/mL BSA, 0.1 mM Na3VO4, 2 mM DTT, and 1% DMSO. Compounds were added into the kinase reaction mixture and incubated for 20 min. Then, ^32 P-ATP was introduced to the mixture to initiate the reaction carried out at 10 μM of ATP concentration. After 2 h at room temperature, the mixture was spotted onto P81 ion exchange paper and kinase activity was then evaluated utilising the filter-binding method. Compounds were tested for single dose enzyme inhibition at a concentration of 20 μM. For the control compound, staurosporine was tested in a 10-dose IC50 mode. To determine the IC50 value, the compounds were tested for 10-doses with 3-fold serial dilution starting at 100 μM.
Synthesised compounds were evaluated for their in vitro PAK4 enzyme inhibitory activities. In vitro kinase assays were performed using HotSpot kinase assays for relative enzyme inhibitory activity at a single concentration (20 μM) and IC50 assessment at an ATP concentration of 10 μM (Figure 1(B)). […] For the allosteric pocket binder, cyclohexyl group (SPA7012) was preferable to the smaller dimethyl (SPA7011) or hydroxymethyl group (SPA7013), and the aromatic ring (SPA7014) reduced activity compared to the saturated ring (SPA7012). In vitro enzyme IC50 values appeared in the order of SPA7012, SPA7017, and SPA7016. […] Molecular docking analysis was performed on the human PAK4 catalytic domain structure complexed with GNE-2861 (PDB code: 4O0V). The binding pose of SPA7012 overlapped well with the crystal structure of GNE-2861, with the allosteric binder properly positioned in the specific back pocket. The oxygen atom in the tertiary alcohol of the hydrophobic allosteric binder formed hydrogen bonds with the backbone of Phe459 and the side chain of Glu366 (Figure 1(D)). The amine group and nitrogen atom in the pyrazolo[3,4-d]pyrimidine core scaffold also formed hydrogen bonds with Lue398 at the hinge region. Finally, SPA7012 was decided as a lead compound for further examination with satisfactory potency and subtype selectivity.

T1 sequence (O96013 whole entry): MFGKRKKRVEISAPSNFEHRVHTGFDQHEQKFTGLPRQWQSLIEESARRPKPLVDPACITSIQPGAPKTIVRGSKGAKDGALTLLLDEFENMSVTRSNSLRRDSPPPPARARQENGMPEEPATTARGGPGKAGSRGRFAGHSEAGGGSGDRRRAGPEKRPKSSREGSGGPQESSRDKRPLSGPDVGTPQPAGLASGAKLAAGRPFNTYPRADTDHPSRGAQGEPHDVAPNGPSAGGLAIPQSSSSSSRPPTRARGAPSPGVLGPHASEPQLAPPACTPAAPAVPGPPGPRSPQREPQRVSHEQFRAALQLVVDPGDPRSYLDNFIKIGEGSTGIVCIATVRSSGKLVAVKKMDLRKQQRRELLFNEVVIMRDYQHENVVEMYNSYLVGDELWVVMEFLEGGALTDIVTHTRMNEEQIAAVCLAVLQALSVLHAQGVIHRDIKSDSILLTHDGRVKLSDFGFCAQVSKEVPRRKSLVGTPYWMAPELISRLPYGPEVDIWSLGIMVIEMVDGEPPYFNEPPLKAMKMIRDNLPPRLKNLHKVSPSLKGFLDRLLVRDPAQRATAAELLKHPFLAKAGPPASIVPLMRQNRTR

Consider `CC(C)(O)C#Cc1cccc(-n2c3ccccc3c3c(N)nccc32)c1` [Compound 10a, 4–(3–(1-Aminopyrido[4,3-b]indol-5-yl)phenyl)-2-methylbutyn-2-ol], for which the inhibition at 20 µM was 32%.
Regarding `Nc1nccc2c1c1ccccc1n2-c1cccc(C#CC2(O)CCCCC2)c1` [Compound 10b, 3-(1-Aminopyrido[4,3-b]indol-5-yl)phenylethynylcyclohexan-1-ol], the IC50 worked out at 34 µM and the inhibition at 20 µM was found to be 54%.
On to `CC(O)(C#Cc1cccc(-n2c3ccccc3c3c(N)nccc32)c1)CO` (centres unmarked) [Compound 10c, 4–(3-(1-Aminopyrido[4,3-b]indol-5-yl)phenyl)-2-methylbutyn-1,2-diol], for which the inhibition at 20 µM came to 29%.
For `Cc1nn(-c2cccc(C#CC(C)(C)O)c2)c2ncnc(N)c12` [Compound 14a, 4–(3–(4-Amino-3-methylpyrazolo[3,4-d]pyrimidin-1-yl)phenyl)-2-methylbutyn-2-ol], the inhibition at 20 µM was 60%.
Regarding `Cc1nn(-c2cccc(C#CC(C)(O)CO)c2)c2ncnc(N)c12` (centres unmarked) [Compound 14c, 4–(3-(4-Amino-3-methylpyrazolo[3,4-d]pyrimidin-1-yl)phenyl)-2-methylbutyn-1,2-diol], the inhibition at 20 µM came to 36%.
In the case of `Cc1nn(-c2cccc(C#CC(C)(O)c3ccccc3)c2)c2ncnc(N)c12` (centres unmarked) [Compound 14d, 4–(3-(4-Amino-3-methylpyrazolo[3,4-d]pyrimidin-1-yl)phenyl)-2-phenylbutyn-2-ol], the inhibition at 20 µM stood at 65%.
For `Nc1ncnc2c1c(CCCN1CCOCC1)nn2-c1cccc(C#CC2(O)CCCCC2)c1` [Compound 18a, (3–(4-Amino-3–(3-morpholin-4-ylpropyl)pyrazolo[3,4-d]pyrimidin-1-yl)phenylethynyl)cyclohexanol], the IC50 stood at 9.92 µM and the inhibition at 20 µM came to 88%.
`Nc1ncnc2c1c(CCCN1CCCCC1)nn2-c1cccc(C#CC2(O)CCCCC2)c1` [Compound 18b, (3-[4-Amino-3–(3-piperidin-1-ylpropyl)pyrazolo[3,4-d]pyrimidin-1-yl]phenylethynyl)cyclohexanol]: the IC50 came to 4.41 µM and the inhibition at 20 µM was found to be 90%.
